Here are results for 27 compounds from US5328921A, “Aryl pyridinium compounds which are useful in treating shock” (American Cyanamid Company, priority 1992, dated 1994).

Test [1] relates to PAF induced lethality in mice. As to the kind of experiment: PAF induced lethality in mice. Type of test: in vivo. Conditions: 0.5 mg/kg IP 1/2 hour before lethal PAF I.V. challenge, alive after 2 hours, control (saline) 10; for responders at 0.5 mg/kg: Mus musculus, read-out: % Survival. As for the experimental part:
PAF given I.V. to mice causes an immediate hypotensive shock leading to death in 1 hour or less. Compounds are given intraperitoneally at 1/2 hour prior to the PAF challenge. Animals alive after 2 hours are counted and the activity of test compounds expressed as survival corrected for any control (saline treated) animals which survived the PAF challenge.

The next test addresses T1, PAF receptor (Oryctolagus cuniculus, UniProt G1TEI7).
T1 construct: centrifuged at 800 rpm for 10-15 minutes at room temperature to recover the platelet rich plasma (PRP); endogenous in cells; host or cells: rabbit platelets (platelet rich plasma from citrated blood of male New Zealand White rabbits)
As to the kind of experiment: In vitro PAF antagonism: inhibition of PAF induced platelet aggregation in rabbit platelet rich plasma. Type of test: cell-based, rabbit (male New Zealand White). The note with it: rabbit PRP; for % INH (% of inhibition of PAF induced platelet aggregation): Dose 1.00E-05 M. As for the experimental part:
Test compounds are evaluated as PAF receptor antagonists in vitro by measuring inhibition of PAF (platelet activating factor) induced platelet aggregation. Platelet aggregation is measured by a modification of the method described in A. Wissnet, et. al., J. Med. Chem., 27 1174, 1984.
Approximately 120-240 ml of blood is collected by cardiac puncture from unanesthetized male New Zealand White rabbits (Whaley's Summit View Farms, Belvedere, N.J.) with the use of 3.2% sodium citrate anticoagulant (1 part of citrate/10 parts of blood). All syringes and pipers are plastic. The blood is gently mixed and immediately centrifuged at 800 rpm for 10-15 minutes at room temperature to recover the platelet rich plasma (PRP). Platelet poor plasma (PPP) is prepared by centrifuging PRP at 2800 rpm for 10 minutes at room temperature.
Dilutions (113000) of PRP in Isoton, diluent are made and platelet counts are determined on a Coulter Thrombocounter which is standardized with platelet reference standards (Interscience Platelet Control, Portland, Oreg.). PRP platelet counts are adJusted to approximately 400,000-500,000 platelets/11 by the addition of PPP.
L-PAF (Platelet Activating Factor) is obtained from Calbiochem. A stock solution of 1-2 E-3M is prepared in 10% ethanol in water or 100% methanol and serial working dilutions are made using saline. E-3M stock solutions of test compounds are prepared in 100% methanol and serially diluted in PBS. Sonication of samples before testing in biological screens assists in the solubility of compounds in the liquid medium. All solutions are made up in plastic tubes, stored on ice and protected from heat and light. Solutions are prepared fresh or frozen at -20° C. and used within 48 hours.
Incubation mixtures consisted of 400 11 PRP, 50 11 of saline diluent or test compound and 50 11 of PAF agohist. More specifically, 40011 of PRP is stabilized in a cuvette for 1-2 minutes at 37° C. in the aggregometer to achieve a stable baseline, then 50 11 of saline or test compound is added and incubated for 5 minutes before addition of the challenge concentration of PAF. A submaximal concentration is determined from the dose response curve for PAF for that experiment. In general, the challenge concentration is 5E-8 or 1E-7M. Aggregation is monitored for 5 minutes. Samples containing test compound or diluent are run simultaneously for comparison. Test compounds are initially evaluated at a screening concentration of 1E-SM.
The recording equipment consists of a dual channel Chronolog aggregometer connected to a dual channel 10MV full scale deflection Omniscribe chart recorder (Houston Instruments). The chart recorder is calibrated daily with the use of a suspension of Bio-Rad latex beads (S-X 12 400 mesh) which has a density slightly greater than rabbit PRP. The bead suspension is used to set the 0% light transmission mark and clear water is used to set the 100% light transmission mark. These limits defined a full scale deflection. The aggregation traces are analyzed by a digitizing method (C. Kohler and B. Zoltan, J. Pharm. Methods, 12, 113, 1984) with x, y coordinate data stored in a computer file. A suitable program computes parameters of interest such as the magnitude of aggregation.

pIC50: −log10 of the molar value. Where “and” joins values, the source holds several entries; their conditions need not be identical. Equal values may be shown once. Where a name gives a salt, the structure may show the parent alone.

T1 sequence (G1TEI7 1-342): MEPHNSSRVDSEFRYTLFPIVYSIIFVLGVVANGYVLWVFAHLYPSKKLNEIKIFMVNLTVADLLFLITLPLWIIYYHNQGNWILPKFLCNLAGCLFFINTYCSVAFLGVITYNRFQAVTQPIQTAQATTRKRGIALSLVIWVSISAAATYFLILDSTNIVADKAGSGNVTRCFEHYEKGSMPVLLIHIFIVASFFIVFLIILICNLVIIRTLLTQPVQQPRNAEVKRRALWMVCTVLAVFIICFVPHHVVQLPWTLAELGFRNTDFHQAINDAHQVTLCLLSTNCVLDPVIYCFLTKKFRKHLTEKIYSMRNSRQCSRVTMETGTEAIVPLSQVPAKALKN

As usually defined, the pIC50 is the negative decadic logarithm of the IC50, by convention in mol/L. Higher therefore signals a small IC50. In the case of `CCCCCCCCCCCCCCOc1ccc(C(=O)N(Cc2cccc[n+]2C)C(C)=O)cc1.[I-]` [2-[[Acetyl[4-(tetradecyloxy)benzoyl]amino]methyl]-1-methylpyridinium iodide], the responders at 0.5 mg/kg in test [1] came to 27%. At PAF receptor (PAF challenge 5.00E-08 M), the “% INH (% of inhibition of PAF induced platelet aggregation)” value stood at 0%; the pIC50 is 6.07 and 6.15 and 6.02 and 5.89.
Turning to `CCCCCCCCCCCCCCOc1ccccc1CN(Cc1cccc[n+]1C)C(C)=O` [2-[[Acetyl[[2-(tetradecyloxy)phenyl]methyl]amino]-methyl]-1-methylpyridinium iodide], in test [1], the responders at 0.5 mg/kg turned out to be 23%. On PAF receptor (PAF challenge 5.00E-08 M), this compound showed a pIC50 of 4.37.
For `CCCCCCCCCCCCCCOc1ccc(COC(=O)N(Cc2cccc[n+]2C)C(C)=O)cc1` [2-[[Acetyl[[[4-(tetradecyloxyphenyl]methoxy]-carbonyl]amino]methyl]-1-methylpyridinium iodide], the responders at 0.5 mg/kg in test [1] amounted to 40%.
With `CCCCCCCCCCCCCCCCOc1ccc(OCC(=O)NCCc2cccc[n+]2CC)cc1` [1-Ethyl-2-[2-[[[4-(hexadecyloxy)phenoxy]acetyl]-amino]ethyl]pyridinium iodide], the pIC50 against PAF receptor (PAF challenge 1.00E-07 M) is 5.33; on PAF receptor (PAF challenge 5.00E-08 M), 5.57 and 5.49.
Consider `CCCCCCCCCCCCCCOc1ccc(CN(C(=O)c2ccc[n+](C)c2)c2ccccc2)cc1` [1-Methyl-3-[[phenyl[[4-(tetradecyloxy)phenyl]methyl]-amino]carbonyl]pyridinium iodide], for which the responders at 0.5 mg/kg in test [1] worked out at 69%.
Turning to `CCCCCCCCCCCCCCOc1ccc(C(=O)N(Cc2cccc[n+]2Cc2ccccc2)C(C)=O)cc1` [2-[[Acetyl[4-(tetradecyloxy)benzoyl]amino]methyl]-1-(phenylmethyl)pyridinium bromide], in test [1], the responders at 0.5 mg/kg was determined as 0%. In addition, the pIC50 at PAF receptor (PAF challenge 5.00E-08 M) was 3.52.
Consider `CCCCCCCCCCCCCCOc1cc(C(=O)N(Cc2cccc[n+]2C)C(C)=O)ccc1OC` [2-[[Acetyl[4-methoxy-3-(tetradecyloxy)benzoyl]-amino]methyl]-1-methylpyridinium iodide], for which, in test [1], the responders at 0.5 mg/kg is 21%. The compound also had a pIC50 against PAF receptor (PAF challenge 5.00E-08 M) of 3.80.
For the compound `CCCCCCCCCCCCCCCCOc1ccc(OCC(=O)NCc2cccc[n+]2CC)cc1` [1-Ethyl-2-[[[[4-(hexadecyloxy)phenoxy]acetyl]amino]-methyl]pyridinium iodide], the pIC50 against PAF receptor (PAF challenge 5.00E-08 M) is 5.14 and 5.25.
In the case of `CCCCCCCCCCCCCCOc1ccc(C(=O)N(Cc2cccc[n+]2C)C(C)=O)cc1OC` [2-[[Acetyl[3-methoxy-4-(tetradecyloxy)benzoyl]amino]-methyl]-1-methylpyridinium iodide], in test [1], the responders at 0.5 mg/kg is 43%. This compound also showed a pIC50 against PAF receptor (PAF challenge 5.00E-08 M) of 7.20.
As for `CCCCCCCCCCCCCCOc1ccc(C(=O)N(Cc2cccc[n+]2C)C(=O)c2ccccc2OC)cc1` [2-[[(2-Methoxybenzoyl)[4-(tetradecyloxy)]benzoyl]-amino]methyl]-1-methylpyridinium iodide], at PAF receptor (PAF challenge 5.00E-08 M), the “% INH (% of inhibition of PAF induced platelet aggregation)” value came to 0% and the pIC50 is 5.82.
On to `CCCCCCCCCCCCCCOc1ccc(CN(Cc2cccc[n+]2CC)C(C)=O)cc1` [2-[[Acetyl[[4-(tetradecyloxy)phenyl]methyl]amino]-methyl]-1-ethylpyridiniumiodide], for which, on PAF receptor (PAF challenge 1.00E-07 M), the pIC50 is 4.89.
Take `CCCCCCCCCCCCCCOc1ccc(CN(Cc2cccc[n+]2C)S(C)(=O)=O)cc1` [1-Methyl-2-[[(methylsulfonyl)[[4-(tetradecyloxy)-phenyl]methyl]amino]methyl]pyridinium iodide]: in test [1], the responders at 0.5 mg/kg worked out at 55%.
`CCCCCCCOc1ccc(C(=O)N(Cc2cccc[n+]2C)C(C)=O)cc1OCCCCCCC` [2-[[Acetyl[3,4-bis(heptyloxy)benzoyl]amino]methyl]-1-methylpyridinium iodide]: in test [1], the responders at 0.5 mg/kg was 45%.
With `CCCCCCCCCCCCCCOc1ccc(C(=O)NCCc2cccc[n+]2C)cc1` [1-Methyl-2-[2-[[4-(tetradecyloxy)benzoyl]amino]-ethyl]pyridinium iodide], the pIC50 against PAF receptor (PAF challenge 1.00E-08 M) was 4.85.
Regarding `CCCCCCCCCCCCCCOc1ccc(CC(=O)NCCc2cccc[n+]2C)cc1` [1-Methyl-2-[2-[[[4-(tetradecyloxy)phenyl]acetyl]-amino]ethyl]pyridinium iodide], at PAF receptor (PAF challenge 5.00E-08 M), the pIC50 is 4.82.
On the same count and under the same terms, for `CCCCCCCCCCCCCCOc1ccc(CNC(=O)c2cc[n+](C)cc2)cc1` [1-Methyl-4-[[[[4-(tetradecyloxy)phenyl]methyl]amino]-carbonyl]pyridinium iodide] the value was 4.22.
Take `CCCCCCCCCCCCCCOc1ccc(C(=O)N(Cc2ccc[n+](C)c2)C(C)=O)cc1` [3-[[Acetyl[4-(tetradecyloxy)benzoyl]amino]methyl]-1-methylpyridinium iodide]: the pIC50 against PAF receptor (PAF challenge 5.00E-08 M) is 5.17.
On to `CCCCCCCCCCCCCCOc1ccc(CN(Cc2ccc[n+](C)c2)C(C)=O)cc1` [3-[[Acetyl[[4-(tetradecyloxy)phenyl]methyl]amino]-methyl]-1-methylpyridinium iodide], for which the responders at 0.5 mg/kg in test [1] was 38%. On PAF receptor (PAF challenge 1.00E-08 M), this compound gave a negative-log IC50 (pIC50) of 4.85.
With `CCCCCCCCCCCCCCOc1ccc(C(=O)NCc2cccc[n+]2C)cc1OCCCCCCCCCCCCCC` [1-Methyl-2-[[[3,4-bis(tetradecyloxy)benzoyl]amino]-methyl]pyridinium iodide], the responders at 0.5 mg/kg in test [1] is 0%.
In the case of `CCCCCCCCCCCCCCOc1ccc(N(Cc2ccc[n+](C)c2)C(C)=O)cc1` [3-[[Acetyl[4-(tetradecyloxy)phenyl]amino]methyl]-1-methylpyridinium iodide], in test [1], the responders at 0.5 mg/kg amounted to 7%.
`CCCCCCCCCCCCCCOc1ccc(C(=O)N(Cc2cccc[n+]2C)S(C)(=O)=O)cc1` [1-Methyl-2-[[(methylsulfonyl)[4-(tetradecyloxy)-benzoyl]amino]methyl]pyridinium salt with trifluoromethanesulfonic acid (1:1)]: the responders at 0.5 mg/kg in test [1] is 88%.
Take “2-[[Acetyl[[4-(tetradecyloxy)-benzoyl]methyl]amino]methyl]-1-ethylpyridinium iodide”: the “% Survival” value in test [1] is 40%.
`CCCCCCCCCCCCCCOc1ccc(CN(Cc2cc[n+](C)cc2)C(C)=O)cc1` [4-[[Acetyl[[4-(tetradecyloxy)phenyl]methyl]amino]-methyl]-1-methylpyridinium iodide]: on PAF receptor (PAF challenge 5.00E-08 M), the pIC50 was 6.00.
Regarding `CCCCCCCCCCCCCCOc1ccc(CN(C(=O)c2ccc[n+](CCC)c2)c2ccccc2)cc1` [3-[[Phenyl[[4-(tetradecyloxy)phenyl]methyl]amino]-carbonyl]-1-propylpyridinium iodide], the responders at 0.5 mg/kg in test [1] was determined as 64%.
`CCCCCCCCCCCCCCCCOc1ccc(OCC(=O)N(Cc2cccc[n+]2C)C(C)=O)cc1` [2-[[Acetyl[[4-(hexadecyloxy)phenoxy]acetyl]amino]-methyl]-1-methylpyridinium iodide] showed a pIC50 at PAF receptor (PAF challenge 5.00E-08 M) of 3.55.
As for `CCCCCCCCCCCCCCOc1ccc(C(=O)N(Cc2cccc[n+]2C)C(C)=O)cc1OCCCCCCCCCCCCCC` [2-[[Acetyl[3,4-bis(tetradecyloxy)benzoyl]amino]-methyl]-1-methylpyridinium iodide], the responders at 0.5 mg/kg in test [1] worked out at 36%.
`CCCCCCCCCCCCCCOc1ccc(C(=O)N(Cc2ccc[n+](C)c2)C(C)=O)cc1C(C)(C)C` [3-[[Acetyl[3-(1,1-dimethylethyl)-4-(tetradecyloxy)-benzoyl]amino]methyl]-1-methylpyridinium iodide]: the pIC50 on PAF receptor (PAF challenge 5.00E-08 M) was 4.70.
